Test results: patent publication US7709514B2, “Therapeutic molecules and methods-1” (Cortical Pty Ltd, priority 2002, dated 2010)
“Also recorded” adds a separate entry of the source. Like-named read-outs stand apart in the source and are kept apart here.

What was measured:
[1] = tested on: murine antigen induced arthritis; assay: murine antigen-induced arthritis, histological score; format: in vivo, mice
Protocol: Antigen-induced arthritis was induced in mice. C57BL6/J male mice, aged 7-10 weeks old, were immunized on day 0 with 200 μg methylated BSA (mBSA) emulsified in 200 μl of Freund's complete adjuvant (FCA) injected subcutaneously into the flank skin. Mice were treated with compound 5, administered by intraperitoneal injection, once per 24 hours at a dose of 15 mg/kg body weight. After seven days, mice received 100 μg mBSA and 100 μl FCA by intradermal injection at the base of the tail. After a further 14 days, arthritis was induced by intra-articular injection of 30 μg mBSA in 10 μl of sterile saline into the left knee, the right knee being injected with sterile saline alone.
Arthritis was analysed histologically at day 28 after first immunisation. Knee joints were dissected and fixed in 10% buffered formalin for 7 days. Fixed tissues were decalcified for 3 weeks in 15% ethylene-diamine-tetra-acetic acid (EDTA), dehydrated and embedded in paraffin. Sagittal sections (5 μm) of the knee joint were stained with Safranin-O and counterstained with fast green/iron hematoxylin. Histological sections were scored from 0 to 3 for four parameters: Synovitis was defined as hyper-cellularity of the synovium including pannus formation. Joint space exudate was identified as leukocytes, discretely or in aggregates, in the joint space. Cartilage degradation was defined as the loss of Safranin-O staining of articular cartilage (0=full stained cartilage, 3=totally unstained cartilage). Bone damage was defined as the extent and depth of the subchondral bone invasion by pannus. A total score was also generated from the sum of these four parameters (maximum 12).

[2] = tested on: lymph node and splenic T cells; assay: ex vivo antigen-specific T cell activation after in vivo treatment; parameters: species or system mice
From the text: In vivo administration of such a compound might be expected to exert effects on T cell responsiveness even after the T cells have been removed from exposure to the compound, that is, if T cells were studied ex vivo after in vivo treatment with the MIF antagonist compound. To measure ex vivo antigen-specific T cell activation, draining lymph nodes from arthritic limbs or spleens were removed from mice with murine antigen induced arthritis, induced as above with mBSA, at day 28 after first immunisation and a single cell suspension prepared in DMEM containing 5% FCS and 0.05% 2-mercaptoethanol. 1×10^5 cells/200 μl were cultured in triplicate in the presence or absence of mBSA (0.1, 1.0, 10 μg/ml) in 96-well plates for 48 hours (37° C., 5% CO2.) The T cell proliferation response was determined by measuring ^3H-thymidine incorporation during the final 18 hr. The cells were harvested and radioactivity incorporation into the DNA was measured with a Wallac 1409 liquid scintillation counter. The means of each triplicate culture were calculated. Each experiment comprised at least three individual animals and the results presented represent the mean±SEM of groups of animals in each experiment. The percentage inhibition of T cell proliferation was calculated using the result of the […] incorporation of cells from compound-treated animals subtracted from the ^3H-thymidine incorporation of cells from vehicle-treated animals.

[3] = tested on: antigen-specific T cell activation; assay: antigen-specific (mBSA) activation of splenic T lymphocytes, 3H-thymidine incorporation; format: cell-based, mice; conditions: Mus musculus, T-cell, read-out: EC50, inhibition of T cell activation
Protocol: C57BL6/J male mice, aged 7-10 weeks old, were immunised with 200 μg of methylated bovine serum albumin (mBSA) dissolved in 20 μL of saline, emulsified in 200 μL of Freund's complete adjuvant (FCA) by subcutaneous injection. Seven (7) days later mice received a booster immunisation with 100 μg mBSA in 10 μL saline plus 100 μL FCA by subcutaneous injection. After a further seven (7) days mice were killed and spleens collected aseptically into Hanks buffered saline solution (HBSS). A single cell suspension was prepared in Petri dishes by flushing DMEM using a 26G needle and 2 mL syringe. The resulting cell suspension was centrifuged for 5-7 minutes and supernatant discarded. Erythrocytes were lysed using a solution containing 0.579% NH4Cl, 0.000037% EDTA, and 0.1% NaHCO3 in a 37° C. water bath. Tubes were then filled with DMEM and centrifuged for 5-7 minutes. The cell-containing pellet was then resuspended in DMEM containing 5% fetal calf serum TICS) and 0.05% 2-mercapto-ethanol at a concentration of 1×10^6 cells/mL and plated at 1×10^5 cells/well in 96-well plastic tissue culture plates. Test substances (compound or vehicle) were added and incubated for 1 hour in a 37° C., 5% CO2 incubator. The specific stimulating antigen, mBSA, was then added at 10-50 μg/ml and plates incubated for 30 hours in a 37° C., 5% CO2 incubator. Tritiated ^3H-thymidine was then added at a concentration of 0.5 μCi/well for a further 18 hours. Cells were harvested on a Packard cell harvester, and the harvested material added to 750 μL/tube scintillation fluid. Scintillation counts were read on a Wallac beta-emission counter.
The concentration at which T cell activation was suppressed by 50% compared to vehicle-only-treated cells (EC50) was calculated using Prism® software. […] Further compounds were also tested for their ability to inhibit antigen-specific T cell activation as a marker of the inhibition of the cytokine or biological activity of MIF using this assay. Table 5 lists the EC50 for each compound in this assay, performed with concentrations of mBSA of either 50 or 10 μg/ml.

[4] = tested on: IL-1-induced COX-2 expression; assay: IL-1-induced COX-2 expression in S112 human dermal fibroblasts (MIF-dependent bioassay); format: cell-based
Protocol: The activity of compounds was studied in a bioassay utilising MIF-dependent activation of human dermal fibroblasts. […] IL-1-induced COX-2 expression is therefore a MIF-dependent event. […] Prior to experimentation, cells were seeded at 10^5 cells/ml in RPMI/0.1% BSA for 18 hours. […] After 6 hours, cells were collected and intracellular COX-2 protein determined by permeabilisation flow cytometry. […] Cellular fluorescence was determined using a flow cytometer. At least 5000 events were counted for each reading, each of which was performed in duplicate, and the results expressed in mean fluorescence intensity (MFI) after subtraction of negative control-labelled cell fluorescence. The effect of each compound was determined by subtracting the IL-1+compound-treated cell MFI from the IL-1-treated cell (control) MFI and expressed as % inhibition. In each case the % inhibition of IL-1-induced COX-2 expression is expressed as the mean, or mean±SEM where results are available from multiple experiments.

[5] = tested on: murine peritoneal macrophage cytokine production; assay: inhibition of peritoneal macrophage cytokine production (ELISA); format: cell-based, mice; conditions: Mus musculus
Protocol: C57BL6/J male mice were injected intraperitoneally with 2 ml of thioglycollate. Five (5) days later peritoneal macrophages were collected by lavaging the peritoneum of anaesthetized mice with 3 ml of cold Hanks buffered saline solution. Cells from several mice were pooled, washed and re-suspended in DMEM supplemented with 5% FCS. Cells were plated in 96 well plastic tissue culture plates at 1×10^5 cells/well. Cells were treated with compound or vehicle for 1 hour in a 5% CO2 incubator at 37° C. Cells were then treated with LPS (10-100 ng/ml) or recombinant human interferon-γ (10 units/ml) and incubated for 24 hours. After 24 hours, 50 μl of supernatant from each well was carefully removed and transferred to ELISA plates. The concentration of interleukin 1 (IL-1) or interleukin 6 (IL-6) was measured by ELISA. The concentration of compound at which LPS- or interferon-γ-induced cytokine release was suppressed by 50% compared to vehicle-only-treated cells (EC50) was calculated using Prism® software. Table 9 lists the EC50 for two compounds tested in this assay.

[6] = tested on: IL-1 induced phosphorylation of ERK; assay: IL-1 induced phosphorylation (activation) of ERK, Western blotting; format: cell-based, human; conditions: dexamethasone 10^-9 M alone; human dermal fibroblasts, IL-1 0.1 ng/ml, 30 minutes
Protocol: S112 human dermal fibroblasts cultured in RPMI (serum-free) medium were stimulated with recombinant human IL-1 0.1 ng/ml, as described herein, for 30 minutes, with or without the addition of dexamethasone 10^−9M or benzimidazol-2-one-5-pentanoate (compound 5) (50 μM). The phosphorylation (activation) of ERK was assessed using Western blotting with a mAb specific for the phosphorylated (activated) form of ERK. In brief, cells were disrupted by repeated aspiration through a 21-gauge needle. After incubation on ice for 10 min and microcentrifugation at 3000 rpm for 15 min (4° C.), the supernatants were removed, the protein concentration was determined, and the lysates were stored at −80° C. Equal amounts of cellular proteins were fractionated on 10% SDS-polyacrylamide electrophoresis gels and transferred to polyvinylidene difluoride membranes. Immunoblotting was performed using antibodies directed against phospho-p44/42 (ERK) and total p44142 according to the manufacturer's instructions. The intensity of ERK activation is proportional to the size and optical density (darkness) of the resulting blots. Total ERK blots serve as a loading control, such that changes in phosphorylated ERK represent changes in phosphorylation and not in total ERK protein.

| EC50 ([3]; mBSA 10 μg/ml) [µM] | EC50 ([3]; mBSA 50 μg/ml) [µM] | EC50 ([5]; Interferon-γ 10 units/ml, read-out: EC50, IL-6 release) [µM] | EC50 ([5]; [LPS] 100 ng/mL, read-out: EC50, IL-1 release) [µM] | Structure (SMILES) | Total arthritis score (mean ± SEM) ([1]; maximum 12, vehicle 6.25 ± 0.2) | severity of murine antigen induced arthritis ([1]; mouse, in vivo) | ex vivo splenic T cell proliferation in response to mBSA ([2]; FIG. 11b, table 7, vs vehicle) | % inhibition of ex vivo splenic T cell activation ([2]; [mBSA] 10 μg/mL) [%] | inhibition at 1 µM ([4]; Homo sapiens, Fibroblast, compound 1 μM, S112 cells, IL-1 0.1 ng/ml, 6 hours) [%] | inhibition at 10 µM ([4]; Homo sapiens, Fibroblast, compound 10 μM, S112 cells, IL-1 0.1 ng/ml, 6 hours) [%] | inhibition at 50 µM ([4]; Homo sapiens, Fibroblast, compound 50 μM, S112 cells, IL-1 0.1 ng/ml, 6 hours, read-out: % inhibition of IL-1-induced COX-2 expression) [%] | inhibition at 100 µM ([4]; Homo sapiens, Fibroblast, compound 100 μM, S112 cells, IL-1 0.1 ng/ml, 6 hours) [%] | ERK activation by IL-1 [6] | % Inhibition of IL-1 induced COX-2 expression ([4]; Table 2 experiment, dexamethasone 10^-9 M alone) [%] |
| --- | --- | --- | --- | --- | --- | --- | --- | --- | --- | --- | --- | --- | --- | --- |
| 53.3 | 71.7 | 9.82 | 16.7 | O=C(NCCc1ccc(O)c(O)c1)c1ccc2[nH]c(=O)[nH]c2c1 [Compound 13, N-(3,4-dihydroxyphenethyl)-2-oxo-2,3-dihydro-1H-1,3-benzimidazole-5-carboxamide] | 5.17 ± 1.9 | inhibitory effect | reduced proliferative responses | 28 | 9.6 | 14.1 | 32.2 | 29.9 | – | – |
| – | – | – | – | C[C@@H]1C[C@H]2[C@@H]3CCC4=CC(=O)C=C[C@]4(C)[C@@]3(F)[C@@H](O)C[C@]2(C)[C@@]1(O)C(=O)CO [Dexamethasone, dexamethasone] | – | – | – | – | – | – | – | – | does not inhibit; also recorded: not inhibited | 46.8 |
